Data on six molecules can be found in patent US11446300B2 (Alexion Pharmaceuticals, Inc., priority 2015, dated 2022).

Assay [1] has as its system primary CLL cells. In words: Apoptosis in primary CLL samples, propidium iodide/Annexin V staining and PARP cleavage. It is filed as cell-based, human. The note with it: co-treatment with cerdulatinib.
For assay [2], the system named is OCI-Ly18. The assay can be described thus: Combination synergy, Cell Titer Glo, 72 hours. The class given is cell-based. As to conditions: Homo sapiens, OCI-Ly18, 72 h. How it is done:
(§1) Synergistic anti-tumor activity in DLBCL cell lines was determined using the Cell Titer Glo assay. Briefly, 5,000 cells were plated in 96 well plates in complete tissue culture media. […] Cells were incubated with or without drug for 72 hours in a 37° C. tissue culture incubator prior to evaluation by CellTiter Glo as per the manufacturer protocol (Promega). Synergy was evaluated by calculating a combination index score, as described elsewhere (Jacquement et al, Molecular Cancer 2012) following IC50 determination using Prism software. The compounds are commercially available or are made according to synthetic methods known to those skilled in the art.

For assay [3], the system named is BTK^C481S-transfected TMD8 cells. The assay can be described thus: Cell count and viability of transfected TMD8 cells. The class given is cell-based. The note with it: 250 nM; 7 days.
Source text: (§2) Cell transfection, cell count and viability assay: TMD8 cells were transfected with constructs of WT BTK or BTK^C481S mutants using kit V, Program U-13 on Amaxa Nucleofector, according to the manufacturer's protocols (Amaxa, Cologne, Germany). After transfection, the cells were co-cultured with NKTert cells in a 24-well plate for 24 hrs for recovery.
The test system of assay [4] is WT BTK-transfected TMD8 cells. The assay can be described thus: Cell count and viability of transfected TMD8 cells. It is filed as cell-based. The note with it: 250 nM; 7 days.
Source text: as §2
Assay [5] deals with VAL. The assay can be described thus: Combination synergy, Cell Titer Glo, 72 hours. It is filed as cell-based. The protocol:
as §1, with “calculating” for “calculating a”
as §1
On the technique in general: ATP-based viability assays read luminescence as a measure of living cells.

In assay [6] the test system is DHL4 (SU-DHL4). In words: Combination synergy, Cell Titer Glo, 72 hours. It is filed as cell-based. The note with it: Homo sapiens. The protocol: as §1, with “calculating” for “calculating a”
as §1

The test system of assay [7] is Lyl (OCI-Lyl). In words: Combination synergy, Cell Titer Glo, 72 hours. The class given is cell-based. The protocol:
as §1, with “calculating” for “calculating a”
as §1

For assay [8], the system named is DHL10. In words: Combination synergy, Cell Titer Glo, 72 hours. The class given is cell-based. How it is done: as §1, with “calculating” for “calculating a”
as §1

The subject of assay [9] is DHL6. In words: Combination synergy, Cell Titer Glo, 72 hours. It is filed as cell-based. The protocol:
as §1, with “calculating” for “calculating a”
as §1

The test system of assay [10] is DHL4. In words: DLBCL cell line viability, CellTiter Glo, ten-point curve. It is filed as cell-based. The note with it: read-out: IC50 of Kinase Inhibitor in Cell Titer Glo Assay.
Source text: (§3) Each IC50 value is an average of at least four replicate experiments.
Assay [11] has as its system DHL6. Described as above. The class given is cell-based. As to conditions: read-out: IC50 of Kinase Inhibitor in Cell Titer Glo Assay.
Source text: as §3
For assay [12], the system named is U2932. Described as above. It is filed as cell-based. The note with it: Homo sapiens, read-out: IC50 of Kinase Inhibitor in Cell Titer Glo Assay.
Source text: as §3
Assay [13] has as its system DHL10. The description is as above. The class given is cell-based. The note with it: read-out: IC50 of Kinase Inhibitor in Cell Titer Glo Assay.
Source text: as §3
In assay [14] the test system is TOLEDO. Described as above. It is filed as cell-based. The note with it: Homo sapiens; TOLEDO cell line; read-out: IC50 of Kinase Inhibitor in Cell Titer Glo Assay.
Source text: as §3
Assay [15] concerns LY18. Described as above. The class given is cell-based. As to conditions: read-out: IC50 of Kinase Inhibitor in Cell Titer Glo Assay.
Source text: as §3
Assay [16] has as its system DLCL2. Described as above. It is filed as cell-based. As to conditions: read-out: IC50 of Kinase Inhibitor in Cell Titer Glo Assay.
Source text: as §3
Assay [17] deals with LY7. The assay is described as above. The note with it: read-out: IC50 of Kinase Inhibitor in Cell Titer Glo Assay. The class given is cell-based.
Source text: as §3
In assay [18] the test system is VAL. Described as above. As to conditions: read-out: IC50 of Kinase Inhibitor in Cell Titer Glo Assay. The class given is cell-based.
Source text: as §3
The subject of assay [19] is DHL5. The description is as above. It is filed as cell-based. The note with it: read-out: IC50 of Kinase Inhibitor in Cell Titer Glo Assay.
Source text: as §3
The subject of assay [20] is RCK8. The description is as above. It is filed as cell-based. As to conditions: Homo sapiens; RCK8 cell line; read-out: IC50 of Kinase Inhibitor in Cell Titer Glo Assay.
Source text: as §3
In assay [21] the test system is LY10 (OCI-LY10). The assay is described as above. The class given is cell-based. The note with it: LY10 cell line; read-out: IC50 of Kinase Inhibitor in Cell Titer Glo Assay.
Source text: as §3
The test system of assay [22] is DB. The description is as above. It is filed as cell-based. As to conditions: Homo sapiens; DB cell line; read-out: IC50 of Kinase Inhibitor in Cell Titer Glo Assay.
Source text: as §3
The test system of assay [23] is DHL8. The assay is described as above. It is filed as cell-based. The note with it: read-out: IC50 of Kinase Inhibitor in Cell Titer Glo Assay.
Source text: as §3
The subject of assay [24] is LY1. Described as above. The note with it: read-out: IC50 of Kinase Inhibitor in Cell Titer Glo Assay. It is filed as cell-based.
Source text: as §3
In assay [25] the test system is TOLEDO. The assay can be described thus: Combination synergy, Cell Titer Glo, 72 hours. It is filed as cell-based. The note with it: Homo sapiens. The protocol: as §1, with “calculating” for “calculating a”
For assay [26], the system named is U2932. In words: Combination synergy, Cell Titer Glo, 72 hours. The note with it: Homo sapiens. It is filed as cell-based. The protocol: as §1, with “calculating” for “calculating a”
Assay [27] relates to CLL primary cells. In words: CLL cell viability with IL-4/CD40L, PI/Annexin V staining. It is filed as cell-based, human. The protocol:
Viability was assessed using (A) PI/Annexin V staining by flow cytometry. A representative plot is shown or (B) summarized (n=9) showing % of control (PI/Annexin V negative cells). […] Points below the diagonal line represent synergistic interactions, above the line are additive.
Values above the diagonal line represent additive interaction and those under the line are synergistic.

Where two headings read alike, the source gives them in different places. Peptide text beside a SMILES is read from it. * marks the point of attachment. Cbz = O=C(OCc1ccccc1)*; CH2F = FC* Some results are limits rather than exact numbers.

In the case of `CC(NC(=O)C(NC(=O)OCc1ccccc1)C(C)C)C(=O)NC(CC(=O)O)C(=O)CF` (stereo not drawn) [ZVAD, reference compound] (Cbz-Val-Ala-Asp-CH2F; configuration not given here), in assay [1], the “cerdulatinib induced apoptosis on co-treatment” value is reported as “inhibited”.

With `C=CC(=O)N1CCC[C@@H](n2nc(-c3ccc(Oc4ccccc4)cc3)c3c(N)ncnc32)C1` [Ibrutinib, 1-[(3R)-3-[4-Amino-3-(4-phenoxyphenyl)-1H-pyrazolo[3,4-d]pyrimidin-1-yl]piperidin-1-yl]prop-2-en-1-one, reference compound], the IC50 in [2] was 1240 nM; in assay [5], 4.56 µM; in assay [6] (SU-DHL-4, 72 h, read-out: IC50) it was 3100 nM; in assay [7] it was 750 nM; in [8], 1890 nM; in assay [9] it was 310 nM. Also, the cell growth entry in assay [3] is on record as “less sensitive”; in [4], “similarly inhibited”.

In the case of `C[C@H](Nc1ncnc2nc[nH]c12)c1cc2cccc(Cl)c2c(=O)n1-c1ccccc1` [IPI-145], the IC50 in assay [10] was 3.7 µM; in assay [11] it was 2 nM; in assay [12], 27 µM; in assay [13], 4.1 µM; in assay [14], 18 µM; in assay [15], 960 nM. Besides, the IC50 was 5 µM in [16]; 25 µM in assay [17]; 21 µM in [18]; 330 nM in assay [19]; ≥ 50 µM in assay [20]; 5.7 µM in [21]. In addition, the figures for the 50% inhibitory concentration (IC50) in assay [22], in assay [23] and in [24] were ≥ 50 µM, 45 µM and 1300 nM, respectively.

On to `CC1(C)CCC(CN2CCN(c3ccc(C(=O)NS(=O)(=O)c4ccc(NCC5CCOCC5)c([N+](=O)[O-])c4)c(Oc4cnc5[nH]ccc5c4)c3)CC2)=C(c2ccc(Cl)cc2)C1` [ABT-199, 4-(4-{[2-(4-chlorophenyl)-4,4-dimethylcyclohex-1-en-1-yl]methyl}piperazin-1-yl)-N-({3-nitro-4-[(tetrahydro-2H-pyran-4-ylmethyl)amino]phenyl}-sulfonyl)-2-(1H-pyrrolo[2,3-b]pyridin-5-yloxy)benzamide, reference compound], for which the IC50 in assay [25] stood at 230 nM; in assay [26] (U2932, 72 h, read-out: IC50), 490 nM; in [26] (U2932 cell line, read-out: IC50 value), 490 nM; in assay [5] it was 4.3 µM; in [6] (SU-DHL-4, 72 h, read-out: IC50) it was 1630 nM; in assay [6] (SU-DHL-4, SU-DHL4 cell line, read-out: IC50 value) it was 1630 nM. Also, the IC50 stood at 750 nM in assay [7], 3700 nM in assay [8] and 23 nM in assay [9]. Besides, the CLL cell viability entry is “protected CLL cells against ABT-199 induced apoptosis” in assay [27] (IL-4/CD40L for 6 hours, then drug for 24 hours, n=9) and “significantly reduced CLL cell viability” in assay [27] (absence of IL-4/CD40L, 24 hours).

Turning to `COc1cccc2c1C(=O)c1c(O)c3c(c(O)c1C2=O)C[C@@](O)(C(=O)CO)C[C@@H]3O[C@H]1C[C@H](N)[C@H](O)[C@H](C)O1` [Doxo, Doxorubicin], the IC50 worked out at 0.1 µM in [10]; 140 nM in assay [11]; 0.35 µM in assay [12]; 0.3 µM in assay [13]; 0.44 µM in [14]; 60 nM in assay [15]. In addition, the IC50 in assay [16] stood at 0.18 µM; in assay [17], 0.14 µM; in assay [18], 0.22 µM; in assay [19], 30 nM; in assay [20] it was 0.2 µM; in assay [21] it was 0.04 µM. The half-maximal inhibitory concentration (IC50) stood at 0.37 µM in assay [22], 0.15 µM in assay [23] and 190 nM in assay [24].

`CC[C@H](Nc1ncnc2[nH]cnc12)c1nc2cccc(F)c2c(=O)n1-c1ccccc1` [Idelalisib]: the IC50 in assay [10] is 12 µM; in assay [11], 30 nM; in [12], 40 µM; in [13], 12 µM; in assay [14], ≥ 50 µM; in assay [15], 3800 nM. Also, the IC50 in assay [16] was 15 µM; in [17] it was 13 µM; in [18], 29 µM; in assay [19] it was 1300 nM; in assay [20] it was ≥ 50 µM; in [21], 12 µM. The results for the IC50 in assay [22], in assay [23] and in [24] were 42 µM, 49 µM and 4900 nM, respectively.

The term IC50 denotes the midpoint of a concentration-inhibition curve.
